Reference: ChEMBL document CHEMBL5120857, “Rational design, synthesis and biological evaluation of dual PARP-1/2 and TNKS1/2 inhibitors for cancer therapy” (Eur J Med Chem, 2022)
The source made the active and inactive calls. The rule behind the calls is not given here.

Legend:
HCT-116 [1] = experiment: Inhibition of Wnt/beta-Catenin signaling in human HCT-116 cells assessed as decrease in active beta-catenin levels at 10 uM by Western blot analysis; assay type: cell-based
HCT-116 [2] = experiment: Induction of cell cycle arrest in human HCT-116 cells assessed as G2/M phase cells at 1 uM incubated for 3 days by propidium iodide staining based flow cytometry (reference value: 68.35 %); assay type: functional; conditions: time 3 day
[3] = molecular target: T1, Protein mono-ADP-ribosyltransferase PARP12 (Homo sapiens, UniProt Q9H0J9); experiment: Inhibition of PARP-12 (unknown origin)
T1 sequence (Q9H0J9 whole entry): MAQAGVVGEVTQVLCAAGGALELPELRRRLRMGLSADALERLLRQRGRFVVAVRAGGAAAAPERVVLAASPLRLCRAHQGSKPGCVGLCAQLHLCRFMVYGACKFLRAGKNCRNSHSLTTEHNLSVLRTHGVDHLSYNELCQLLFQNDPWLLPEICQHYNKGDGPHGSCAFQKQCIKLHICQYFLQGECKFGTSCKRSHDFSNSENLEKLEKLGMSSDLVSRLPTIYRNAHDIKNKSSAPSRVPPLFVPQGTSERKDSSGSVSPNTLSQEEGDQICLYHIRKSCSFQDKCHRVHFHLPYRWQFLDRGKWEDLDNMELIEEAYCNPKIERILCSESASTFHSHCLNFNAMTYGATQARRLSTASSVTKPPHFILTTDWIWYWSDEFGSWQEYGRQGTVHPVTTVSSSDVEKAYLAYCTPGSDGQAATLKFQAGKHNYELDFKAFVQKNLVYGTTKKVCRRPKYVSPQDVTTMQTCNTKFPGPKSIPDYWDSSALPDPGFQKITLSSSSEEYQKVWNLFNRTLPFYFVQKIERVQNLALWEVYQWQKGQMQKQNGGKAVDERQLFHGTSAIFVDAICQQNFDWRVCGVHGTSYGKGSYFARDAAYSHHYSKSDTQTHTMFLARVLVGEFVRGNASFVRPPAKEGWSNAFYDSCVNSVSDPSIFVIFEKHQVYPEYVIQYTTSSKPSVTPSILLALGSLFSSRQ

[4] = Toxicity in […] assessed as morphological changes in jejunum at 500 mg/kg, ip by H&E staining based histopathological analysis; assay type: organism-based; conditions: in vivo

COc1ccc(NC(=O)c2ccc(NC(=O)N3CCN(C(=O)c4cc(Cc5n[nH]c(=O)c6ccccc56)ccc4F)CC3)cc2)cc1
inhibition (HCT-116 [1]): Active
Activity (HCT-116 [2]): 31.42%
IC50 [3]: 371 nM
Activity [4]: Non-Toxic
